Measurements taken from US20230270119A1, “BIOSTIMULANT AND BIOPROTECTIVE PEPTIDES AND THEIR USE IN AGRICULTURE” (priority 2020, published 2023).

What was measured:
[1] = tested on: Spodoptera littoralis larvae; assay: Bioassay on Spodoptera littoralis larvae fed with peptide-treated tomato leaves; type: in vivo; details: day 13, femtomolar concentration; for average weight of larvae: control 59 mg (FIG. 11A); for survival rate of larvae: control 100% (FIG. 11B)
Procedure: Briefly, S. littoralis larvae were grown in a climate chamber at 25° C., 70% relative humidity (RH), with a 16-hour light and 8-hour dark photoperiod and fed with an artificial diet until completion of the first moult. For the bioassays, 150 larvae for each thesis were grown on tomato leaves for the entire duration of the second instar to adapt them to the different diet. The newly moulted third-instar larvae up to the moult stage were fed with plants on which a composition comprising peptides PS1-70 and PS1-120 had been applied at 100 pM and 100 fM concentrations in 1×PBS buffer. Larvae fed with plants treated with 1×PBS buffer only were used as a control. Bioassays were carried out under the same environmental conditions, in 32-well plastic trays containing 1.5% (w/v) agar and 0.005% (w/v) methyl parahydroxybenzoate, which are useful for creating a humid environment for maintaining cell turgor of tomato leaves. Each experimental group consisted of 32 larvae. The survival of the larvae was monitored daily, and their weight every other day. […] A significant decrease in the survival of larvae fed with leaves of plants treated with the peptides of the invention compared to those fed with leaves of the control plants was also observed for both assays (FIGS. 10B and 10D). […] The same assay scheme was carried out by the present inventors by feeding S. littoralis larvae with leaves treated with the peptide PS1-70 and with peptides having the sequences SEQ ID NO. 3, 5, and 8 at femtomolar concentration. […] A significant decrease was also observed in the survival of larvae fed with peptide-treated leaves compared to those fed with the control leaves (FIG. 11B). […] 8, SEQ ID NO. 3, and SEQ ID NO. 5 (FIG. 11B).

Botrytis cinerea = Botrytis cinerea necrosis areas on treated detached tomato leaves; type: in vivo, Botrytis cinerea on Solanum lycopersicum; details: 100 fM, day 8, control 11.72 mm^2 (FIG. 13)
Procedure: (§1) For the performance of assays on the phytopathogenic Botrytis cinerea and Alternaria alternata fungi, the present inventors used spores of this microorganism obtained from cultures on solid PDA (Potato Dextrose Agar) sporulation substrate. The plates were inoculated with 20 μl of a conidial suspension at a concentration of 1×10^6 spores/ml and incubated for 15 days at 25° C. in the presence of diffused light, so as to obtain complete sporulation. The spores were then collected in 5 ml of sterile water and, in order to remove the mycelium, were filtered through glass wool, washed with sterile distilled water and collected by centrifugation at room temperature. The concentration of spores suitable for inoculation (10^5-10^7 spores/ml) was determined by the serial dilution method using a Burker cell counting chamber for spore counting.
(§2) The assay was carried out on a detached leaf by taking a compound leaf for each treated tomato plant and for each control plant. Each leaflet of the compound leaf was marked with 3 markers in order to guide the subsequent application of the spores and detection of the pathogen developing necrotic areas.
The leaves were treated by applying 2 μl of a composition comprising the peptides PS1-70 and PS1-120 of the invention at a concentration of 100 pM, 100 fM or 1×PBS for the control leaves. After 6 hours, the time necessary for the perception of the peptides, the leaves were detached from the plant and inoculations with 10 μl of spore solution were carried out in the internerve spaces and near the previously marked points. Monitoring was carried out by measuring the necrosis areas (expressed in mm^2) 1, 3, 5, 8 days after inoculation of the pathogen. The necrosis areas recorded on the control leaves were much larger than those detected on plants treated with the peptides of the invention. This difference increased as a function of the time elapsed since inoculation. The resistance inducing effect of the picomolar treatment is already statistically significant from the first day of inoculation of the pathogen up to the eighth day where values of 33 mm^2 were reached on the control leaves, unlike the treated leaves where values not exceeding 18 mm^2 were recorded for both peptides (FIG. 12A).

Alternaria alternata = Alternaria alternata necrosis areas on treated tomato leaves; type: in vivo; details: 100 fM, day 8, control 17 mm^2 (FIG. 14B)
Procedure: as §1, §2
The present inventors also performed assays aimed at determining the effects of exogenous application of the peptides of the invention on tomato plants against the development of the necrotrophic Alternaria alternata fungus (FIG. 14).
The positive effect of the treatment was statistically significant from day 1 of inoculation of the pathogen to day 8 where values of 24 mm^2 were reached on the control leaves, unlike the treated leaves where values of 8.4 and 8.0 mm^2 were recorded on leaves treated with the peptides PS1-70 and PS1-120 at a concentration of 100 fM (FIG. 14A); and values of 17 mm^2 were recorded on the control leaves and values of 8.3 mm^2, 7.9 mm^2, 8.9 mm^2, and 7.8 mm^2 were recorded on leaves treated with the peptides PS1-70, SEQ ID NO.8, SEQ ID NO.3 and SEQ ID NO.5, respectively, at a concentration of 100 fM (FIG. 14B).

CAT2, SAM and APX2 genes = assay: Salt stress gene expression in tomato plants irrigated with 100 fM peptides; type: in vivo; details: femtomolar
Procedure: The analysis was carried out on the CAT2(A), SAM (B) and APX2 (C) genes. The asterisks indicate the statistical significance of the data by Student's t-test (*p<0.05; **p<0.01; ***p<0.001). […] An experiment was also set up to verify the efficiency of the peptides PS1-70, PS1-120 and SEQ ID NO.5, when administered at femtomolar concentrations, in promoting tolerance to a high salt stress condition.

[2] = Biometric parameters of tomato plants irrigated with peptides; type: in vivo; details: 100 fM
Procedure: FIG. 20 illustrates the effect of irrigation treatment with the peptides PS1-70, PS1-120 and SEQ ID NO.5 at a concentration of 100 fM on the biometric parameters of the tomato plant. […] The asterisks indicate the statistical significance of the data by Student's t-test (*p<0.05). A few biometric parameters are shown in FIG. 20, measured after 14 days of continuous salt stress (150 mM) and 15 days after irrigation with the peptides PS1-70, PS1-120 and SEQ ID NO.5 at 100 fM concentrations, and the respective controls.

Sequence	average weight of larvae [1]	survival rate of larvae [1]	necrosis areas (Botrytis cinerea)	necrosis areas (Alternaria alternata)	activation of salt stress-responsive genes (CAT2, SAM and APX2 genes; 8 days after irrigation, 0 mM NaCl (FIG. 18A1, B1, C1))	tolerance to salt / induction of responsive genes (CAT2, SAM and APX2 genes; irrigated 7 days with 150 mM NaCl (FIG. 18A2, B2, C2))	root surface (root area) ([2]; 14 days of salt stress 150 mM, 15 days after irrigation (FIG. 20A))	growth (fresh weight) of the aerial part ([2]; absence of salt (FIG. 20B))
DDMQEEPKVKLHHEKG [SEQ ID NO. 5]	21 mg	15.62%	6.81 mm^2	7.8 mm^2	able to activate a series of salt stress-responsive genes	more salt-tolerant than the untreated control plants	greater root surface	able to promote the growth of the aerial part of the plant
DDMQEEPKVKLHHEKGGDEKEKIIEKETPSQDI [SEQ ID NO. 8]	13 mg	15.62%	7.67 mm^2	7.9 mm^2	–	–	–	–
EKETPSQDI [SEQ ID NO. 3]	24 mg	43.75%	8.89 mm^2	8.9 mm^2	–	–	–	–
